Experimental findings from patent US20090317807A1, “Primers for Use in Detecting Metallo-Beta-Lactamases” (priority 2006, published 2009) are described below.

The subject of experiment [1] is Pseudomonas aeruginosa (IMP-18). The experiment in a line: Broth microdilution antibiotic susceptibility (MicroScan dehydrated panels, NCCLS criteria). It counts as cell-based. Conditions: for MIC: Pseudomonas aeruginosa, read-out: Microdilution MICs. The procedure: The carbapenem-resistant P. aeruginosa isolate investigated in this study was recovered from the tracheal aspirate of a motorcycle accident victim in the southwestern United States.
The isolate was identified by the Phoenix system (Becton Dickinson Diagnostic Systems, Sparks, Md.). Antibiotic susceptibility was determined by broth microdilution method with investigational dehydrated panels provided by Dade Behring MicroScan (Sacramento, Calif.) according to the manufacturer's recommendations and interpreted according to National Committee for Clinical Laboratory Standards (NCCLS) criteria (National Committee for Clinical Laboratory Standards, “Performance Standards for Antimicrobial Susceptibility Testing, Fourteenth informational supplement 24, Wayne, Pa. (2004)).

Experiment [2] shares this test system. The experiment in a line: Etest metallo-beta-lactamase strip (imipenem with/without EDTA). It counts as cell-based. The source says: Metallo-beta-lactamase production was phenotypically investigated by using the Etest metallo-beta-lactamase strip (AB BIODISK, Solna, Sweden).
Setting [3] is: carbapenem-resistant P. aeruginosa clinical isolate producing IMP-18, broth microdilution.

In brackets after ≈: the same amount, converted by molar mass.

On to `C[C@H]1COc2c(N3CCN(C)CC3)c(F)cc3c(=O)c(C(=O)O)cn1c23` [Levofloxacin], for which the MIC in experiment [1] (setting [3]) was above 16 µg/mL.
For the molecule `CO/N=C(\C(=O)N[C@@H]1C(=O)N2C(C(=O)[O-])=C(C[N+]3(C)CCCC3)CS[C@H]12)c1csc(N)n1` [Cefepime], in experiment [1] (setting [3]), the MIC is above 64 µg/mL.
For the molecule `NCC[C@H](O)C(=O)N[C@@H]1C[C@H](N)[C@@H](O[C@H]2O[C@H](CN)[C@@H](O)[C@H](O)[C@H]2O)[C@H](O)[C@H]1O[C@H]1O[C@H](CO)[C@@H](O)[C@H](N)[C@H]1O` [Amikacin], in experiment [1] (setting [3]), the MIC is 64 µg/mL (≈ 109 µM).
In the case of `CC(C)(O/N=C(\C(=O)N[C@@H]1C(=O)N2C(C(=O)[O-])=C(C[n+]3ccccc3)CS[C@H]12)c1csc(N)n1)C(=O)O` [Ceftazidime], the MIC in experiment [1] (setting [3]) was above 64 µg/mL.
Regarding `C[C@H]1[C@H](NC(=O)/C(=N\OC(C)(C)C(=O)O)c2csc(N)n2)C(=O)N1S(=O)(=O)O` [Aztreonam], in experiment [1] (setting [3]), the MIC came out at 32 µg/mL (≈ 73.5 µM).
In the case of `CN(C)c1ccc(O)c2c1C[C@H]1C[C@H]3[C@H](N(C)C)C(O)=C(C(N)=O)C(=O)[C@@]3(O)C(O)=C1C2=O` [Minocycline], the MIC in experiment [1] (setting [3]) was above 128 µg/mL.
For the molecule Polymyxin B, in experiment [1] (setting [3]), the “Microdilution MICs” value was 4 µg/mL.
Regarding `C[C@@H](O)[C@H]1C(=O)N2C(C(=O)O)=C(SCCN=CN)C[C@H]12` [Imipenem], the MIC in experiment [2] (Pseudomonas aeruginosa, without EDTA) is at least 256 µg/mL; in experiment [1] (setting [3]), 64 µg/mL (≈ 214 µM). For the same molecule, the “MIC of imipenem by Etest in the presence of EDTA” value in experiment [2] (in the presence of EDTA) turned out to be 8 µg/mL. Moreover, the “fold reduction in the MIC of imipenem in the presence of EDTA” value in experiment [2] (with vs without EDTA) is on record as at least 32 fold.
Regarding `CO/N=C(\C(=O)N[C@@H]1C(=O)N2C(C(=O)O)=C(CSc3nc(=O)c(=O)[nH]n3C)CS[C@H]12)c1csc(N)n1` [Ceftriaxone], the MIC in experiment [1] (setting [3]) is above 64 µg/mL.
On to Gentamicin, for which, in experiment [1] (setting [3]), the “Microdilution MICs” value was above 32 µg/mL.
Take `CN(C)c1cc(NC(=O)CNC(C)(C)C)c(O)c2c1C[C@H]1C[C@H]3[C@H](N(C)C)C(O)=C(C(N)=O)C(=O)[C@@]3(O)C(O)=C1C2=O` [Tigecycline]: the MIC in experiment [1] worked out at 32 µg/mL (≈ 54.6 µM).
